This note sets out measurements from PubChem BioAssay AID1195 (EPA DSSTox, 2008).

The test system of this data set is human maximum recommended daily dose, FDA database. Put plainly: DSSTox (FDAMDD) FDA Maximum (Recommended) Daily Dose Database. The following applies: active compounds read low. An outline of the steps:
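MRDD values come from clinical trials with daily oral dosing, usually for 3–12 months, for the average adult, in mg/day converted to mg/kg-bw/day assuming 60 kg. Antineoplastic mg/m2 doses are divided by 37. Activity score maps log10(1/MRDD mmol) onto 1–100.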

Setting [1] is: TherapeuticCategory: antineoplastic.
Where [2] appears, read: TherapeuticCategory: anticholinergic.
[3] abbreviates: TherapeuticCategory: antispasmodic.
The mark [4] stands for this setting: TherapeuticCategory: antihypertensive.
Where [5] appears, read: TherapeuticCategory: anti inflammatory.
Where [6] appears, read: TherapeuticCategory: narcotic analgesic.
[7] abbreviates: TherapeuticCategory: antibacterial.
[8] abbreviates: TherapeuticCategory: bronchodilator.
The mark [9] stands for this setting: TherapeuticCategory: antidepressant.
[10] abbreviates: TherapeuticCategory: antihypertensive, antianginal, antiarrhythmic.
Setting [11] is: TherapeuticCategory: antiulcerative.
The mark [12] stands for this setting: TherapeuticCategory: diagnostic aid.

Turning to `CC(CN1CC(=O)NC(=O)C1)N1CC(=O)NC(=O)C1` (stereo not given), the maximum recommended daily dose (mmol/kg-bw/day) under setting [1] was 0.0155.
Turning to `CCc1cc2c(s1)-n1c(C)nnc1CN=C2c1ccccc1Cl`, the maximum recommended daily dose (mmol/kg-bw/day) (TherapeuticCategory: anxiolytic) is 0.000195.
Regarding `CCN(CC)CCOC(=O)C(c1ccccc1)c1ccccc1`, the maximum recommended daily dose (mmol/kg-bw/day) under setting [2] is 0.0241.
As to `CCN(CCCCOC(=O)c1ccc(OC)c(OC)c1)C(C)Cc1ccc(OC)cc1` (stereo not given), the maximum recommended daily dose (mmol/kg-bw/day) under setting [3] was 0.0157.
In the case of `CC1C2Cc3ccc(O)cc3C1(C)CCN2CC1CC1` (stereo not given), the maximum recommended daily dose (mmol/kg-bw/day) (TherapeuticCategory: narcotic antagonist) is 0.000246.
Turning to `CCOc1nc2cccc(C(=O)O)c2n1Cc1ccc(-c2ccccc2-c2nn[nH]n2)cc1`, the maximum recommended daily dose (mmol/kg-bw/day) under setting [4] was 0.000606.
Take `O=P(O)(O)OCC(Cl)(Cl)Cl`: for the setting “TherapeuticCategory: sedative, hypnotic”, the maximum recommended daily dose (mmol/kg-bw/day) was 0.145.
As for `CC[N+]1(C)CCCC(OC(=O)C(O)(c2ccccc2)c2ccccc2)C1` (stereo not given), the maximum recommended daily dose (mmol/kg-bw/day) under setting [2] is 0.000576.
For `O=P(O)(O)C(O)(Cc1cccnc1)P(=O)(O)O`, the maximum recommended daily dose (mmol/kg-bw/day) (TherapeuticCategory: antiosteoporotic, Ca regulator, Ca channel blocker) is 0.000294.
For `CCCCC1C(=O)NN(c2ccccc2)C1=O` (stereo not given), the maximum recommended daily dose (mmol/kg-bw/day) under setting [5] is 0.0215.
In the case of `CCCCc1nc(Cl)c(CO)n1Cc1ccc(-c2ccccc2-c2nn[nH]n2)cc1`, the maximum recommended daily dose (mmol/kg-bw/day) under setting [4] is 0.00395.
Turning to `Clc1ccccc1CN1CCc2sccc2C1`, the maximum recommended daily dose (mmol/kg-bw/day) (TherapeuticCategory: platelet aggregation inhibitor) was 0.0158.
For `CN1CC[C@]23c4c5ccc(O)c4O[C@H]2[C@@H](O)C=C[C@H]3[C@H]1C5`, under setting [6], the maximum recommended daily dose (mmol/kg-bw/day) is 0.00585.
Consider `CO[C@@]1(NC(=O)C2SC(=C(C(N)=O)C(=O)O)S2)C(=O)N2C(C(=O)O)=C(CSc3nnnn3C)CS[C@@H]21` (stereo not given in full), for which the maximum recommended daily dose (mmol/kg-bw/day) under setting [7] was 0.116.
As to `CC(Oc1ccccc1)C(=O)N[C@@H]1C(=O)N2[C@@H]1SC(C)(C)[C@@H]2C(=O)O` (stereo not given in full), the maximum recommended daily dose (mmol/kg-bw/day) under setting [7] is 0.137.
As for `CC[N+]1(C)[C@@H]2CC(OC(=O)[C@H](CO)c3ccccc3)C[C@H]1[C@@H]1O[C@@H]12` (stereo not given in full), the maximum recommended daily dose (mmol/kg-bw/day) under setting [8] was 2.43e-05.
As for `CC(=O)OCC1=C(C(=O)O)N2C(=O)[C@@H](NC(=O)Cc3cccs3)[C@H]2SC1`, the maximum recommended daily dose (mmol/kg-bw/day) under setting [7] was 0.252.
In the case of `CC(CC1c2ccccc2CCc2ccccc21)CN(C)C` (stereo not given), the maximum recommended daily dose (mmol/kg-bw/day) under setting [9] was 0.00852.
Consider `CC(C)(C)NCC(O)CSc1nc(-c2ccc(C(N)=O)s2)cs1` (stereo not given), for which the maximum recommended daily dose (mmol/kg-bw/day) under setting [10] is 0.000896.
Turning to `Cc1ncc2n1-c1ccc(Cl)cc1C(c1ccccc1F)=NC2`, the maximum recommended daily dose (mmol/kg-bw/day) (TherapeuticCategory: anesthetic) was 0.000256.
In the case of `Nc1nc(=S)c2[nH]cnc2[nH]1`, the maximum recommended daily dose (mmol/kg-bw/day) under setting [1] is 0.0324.
As for `Cn1c(=O)c2c(ncn2CCCNCC(O)c2cc(O)cc(O)c2)n(C)c1=O` (stereo not given), the maximum recommended daily dose (mmol/kg-bw/day) under setting [8] was 0.00257.
Take `COc1cccc2c1C(=O)c1c(O)c3c(c(O)c1C2=O)C[C@@](O)(C(=O)CO)C[C@@H]3O[C@H]1C[C@H](N)[C@@H](O)[C@H](C)O1`: the maximum recommended daily dose (mmol/kg-bw/day) under setting [1] is 0.00447.
Turning to `CCC[N+]12[C@@H]3C[C@]45c6ccccc6N(C)[C@H]4[C@H]1C[C@H](C3[C@@H]5O)[C@H](CC)[C@H]2O` (stereo not given in full), the maximum recommended daily dose (mmol/kg-bw/day) (TherapeuticCategory: antiarryhthmic) was 0.0036.
Consider `OC[C@H]1O[C@@H](n2cnc3c2NC=NC[C@H]3O)C[C@@H]1O`, for which the maximum recommended daily dose (mmol/kg-bw/day) under setting [1] was 0.000249.
Take `NC(=O)[C@@H]1CCCN1C(=O)[C@H](Cc1cnc[nH]1)NC(=O)[C@@H]1CCC(=O)N1`: the maximum recommended daily dose (mmol/kg-bw/day) (TherapeuticCategory: prohormone) is 2.3e-05.
For the compound `CCn1cc(C(=O)O)c(=O)c2cnc(N3CCNCC3)nc21`, the maximum recommended daily dose (mmol/kg-bw/day) under setting [7] is 0.0438.
As to `CN1CC[C@]23c4c5ccc(O)c4O[C@H]2C(=O)CC[C@@]3(O)[C@H]1C5`, under setting [6], the maximum recommended daily dose (mmol/kg-bw/day) is 0.000498.
For the compound `CCC(=O)OCC(=O)[C@@]1(OC(=O)CC)[C@H](C)C[C@H]2[C@@H]3CCC4=CC(=O)C=C[C@]4(C)[C@@]3(F)[C@@H](O)C[C@@]21C`, for the setting “TherapeuticCategory: glucocorticoid, anti inflammatory”, the maximum recommended daily dose (mmol/kg-bw/day) was 0.000297.
In the case of `CC(C(=O)O)c1ccc2c(c1)Cc1cccnc1O2` (stereo not given), the maximum recommended daily dose (mmol/kg-bw/day) under setting [5] was 0.0147.
On to `CN(C(=O)C(Cl)Cl)c1ccc(O)cc1`, for which the maximum recommended daily dose (mmol/kg-bw/day) (TherapeuticCategory: antiamebic) was 0.107.
For the compound `Cc1ccc(C(=O)C(C)CN2CCCCC2)cc1` (stereo not given), the maximum recommended daily dose (mmol/kg-bw/day) (TherapeuticCategory: skeletal muscle relaxant) was 0.0204.
For the compound `CCN[C@H]1C[C@H](C)S(=O)(=O)c2sc(S(N)(=O)=O)cc21`, the maximum recommended daily dose (mmol/kg-bw/day) (TherapeuticCategory: antiglaucomal agent, carbonic anhydrase inhibitor) was 0.00308.
Turning to `CC[C@H](OC(C)=O)C(C[C@H](C)N(C)C)(c1ccccc1)c1ccccc1`, for the setting “TherapeuticCategory: treatment of narcotic addiction”, the maximum recommended daily dose (mmol/kg-bw/day) is 0.0113.
For the compound `O[C@@H]([C@H](O)[C@@H](O)CBr)[C@@H](O)CBr`, the maximum recommended daily dose (mmol/kg-bw/day) under setting [1] is 0.0135.
Consider `Nc1ccn([C@H]2CC[C@@H](CO)O2)c(=O)n1`, for which the maximum recommended daily dose (mmol/kg-bw/day) (TherapeuticCategory: antiviral) is 0.000178.
`S=c1nc[nH]c2nc[nH]c12`: the maximum recommended daily dose (mmol/kg-bw/day) under setting [1] is 0.0164.
For the compound `NC(=O)CC[C@H](N)C(=O)O`, where the note is “TherapeuticCategory: none”, the maximum recommended daily dose (mmol/kg-bw/day) is 1.37.
As to `COc1ccnc(CS(=O)c2nc3ccc(OC(F)F)cc3[nH]2)c1OC` (stereo not given), under setting [11], the maximum recommended daily dose (mmol/kg-bw/day) was 0.00174.
`COC1[C@@H](O[C@@H]2O[C@H](C)[C@@H](O[C@H]3C[C@@](C)(O)[C@H](OC(=O)CC(C)C)[C@H](C)O3)[C@H](N(C)C)[C@H]2O)[C@@H](CC=O)C[C@@H](C)[C@@H](O)/C=C/C=C/C[C@@H](C)OC(=O)C[C@H]1OC(C)=O` (stereo not given in full): under setting [7], the maximum recommended daily dose (mmol/kg-bw/day) was 0.0604.
As for `CC(=O)Nc1ccccc1`, the maximum recommended daily dose (mmol/kg-bw/day) (TherapeuticCategory: antipyretic, analgesic) was 0.037.
Consider `CN(C)C(=O)CCCOC(=O)C(C)(C)Oc1ccc(Cl)cc1`, for which the maximum recommended daily dose (mmol/kg-bw/day) (TherapeuticCategory: antihyperlipoproteinemic) is 0.137.
With `C=CC1=C(C(=O)O)N2C(=O)[C@@H](NC(=O)/C(=N\OCC(=O)O)c3csc(N)n3)[C@H]2SC1`, under setting [7], the maximum recommended daily dose (mmol/kg-bw/day) was 0.0293.
For `CC(C)(C(=O)c1cccnc1)c1cccnc1`, the maximum recommended daily dose (mmol/kg-bw/day) under setting [12] was 0.331.
As to `O=C(O)c1cc(N=Nc2ccc(O)c(C(=O)O)c2)ccc1O`, where the note is “TherapeuticCategory: treatment of ulcerative colitis”, the maximum recommended daily dose (mmol/kg-bw/day) is 0.0553.
`CCOC(=O)C1(c2ccccc2)CCN(C)CC1`: the maximum recommended daily dose (mmol/kg-bw/day) under setting [6] is 0.0606.
`Cc1cc(-c2ccc(N=Nc3ccc4c(S(=O)(=O)O)cc(S(=O)(=O)O)c(N)c4c3O)c(C)c2)ccc1N=Nc1ccc2c(S(=O)(=O)O)cc(S(=O)(=O)O)c(N)c2c1O`: under setting [12], the maximum recommended daily dose (mmol/kg-bw/day) is 0.000347.
Consider `CCN1C(=O)NC(c2ccccc2)C1=O` (stereo not given), for which the maximum recommended daily dose (mmol/kg-bw/day) (TherapeuticCategory: anticonvulsant) is 0.245.
As for `CCN(CC)CC#CCOC(=O)C(O)(c1ccccc1)C1CCCCC1` (stereo not given), the maximum recommended daily dose (mmol/kg-bw/day) under setting [2] is 0.000932.
For `CNCCC(Oc1ccc(C(F)(F)F)cc1)c1ccccc1` (stereo not given), the maximum recommended daily dose (mmol/kg-bw/day) under setting [9] is 0.0043.
Regarding `CO[C@H]1[C@@H](O)[C@H](N)[C@@H](O[C@H]2O[C@H]([C@H](C)N)CC[C@H]2N)[C@H](O)[C@@H]1N(C)C(=O)CN`, under setting [7], the maximum recommended daily dose (mmol/kg-bw/day) was 0.0164.
As for `CCC(=O)Oc1ccc2c(c1)CC[C@@H]1[C@@H]2CC[C@]2(C)[C@@H](OC(=O)CC)CC[C@@H]12`, under “TherapeuticCategory: estrogen”, the maximum recommended daily dose (mmol/kg-bw/day) was 0.0013.
`CN(C)CCOC(c1ccccc1)c1ccccc1`: the maximum recommended daily dose (mmol/kg-bw/day) (TherapeuticCategory: antihistaminic) is 0.00326.
With `CCOc1ccc(Cc2nccc3cc(OCC)c(OCC)cc23)cc1OCC`, the maximum recommended daily dose (mmol/kg-bw/day) under setting [3] is 0.0253.
With `CCCCN1CCCCC1C(=O)Nc1c(C)cccc1C` (stereo not given), the maximum recommended daily dose (mmol/kg-bw/day) (TherapeuticCategory: local anesthetic) was 0.013.
Take `COc1cc(NS(=O)(=O)c2ccc(N)cc2)c(OC)nn1`: the maximum recommended daily dose (mmol/kg-bw/day) under setting [7] is 0.161.
Regarding `CN(C)CC/C=C1/c2ccccc2COc2ccccc21`, the maximum recommended daily dose (mmol/kg-bw/day) under setting [9] is 0.0179.
Consider `CN(C)CCOc1ccc(/C(=C(/CCCl)c2ccccc2)c2ccccc2)cc1`, for which the maximum recommended daily dose (mmol/kg-bw/day) (TherapeuticCategory: antiestrogen, antineoplastic) was 0.0082.
Regarding `CCOC(=O)n1ccn(C)c1=S`, for the setting “TherapeuticCategory: thyroid inhibitor”, the maximum recommended daily dose (mmol/kg-bw/day) was 0.00537.
For `CC1(C)S[C@@H]2[C@H](NC(=O)[C@H](N)c3ccccc3)C(=O)N2[C@H]1C(=O)O`, the maximum recommended daily dose (mmol/kg-bw/day) under setting [7] is 0.167.
For `CC[C@H](C)C(=O)O[C@H]1C[C@@H](C)C=C2C=C[C@H](C)[C@H](CC[C@@H]3C[C@@H](O)CC(=O)O3)[C@H]21`, the maximum recommended daily dose (mmol/kg-bw/day) (TherapeuticCategory: antihypercholesterolemic) is 0.00329.
For `CN1CCN(CC(=O)N2c3ccccc3C(=O)Nc3cccnc32)CC1`, the maximum recommended daily dose (mmol/kg-bw/day) under setting [11] was 0.00711.
On to `CC(C)(C)NC[C@H](O)COc1ccccc1C1CCCC1`, for which the maximum recommended daily dose (mmol/kg-bw/day) under setting [10] is 0.00456.
As to `CNC(=O)c1c(I)c(NC(C)=O)c(I)c(C(=O)O)c1I`, the maximum recommended daily dose (mmol/kg-bw/day) under setting [12] is 0.163.
On to `CCCCN(CCCC)CCNc1nc(-c2ccccc2)no1`, for which the maximum recommended daily dose (mmol/kg-bw/day) (TherapeuticCategory: peripheral vasodilator) is 0.0126.
For the compound `CN(N=O)C(=O)N[C@@H]1[C@@H](O)[C@H](O)[C@@H](CO)O[C@@H]1O`, under setting [1], the maximum recommended daily dose (mmol/kg-bw/day) is 0.407.
Turning to `CN1[C@@H]2CC[C@H]1CC(OC(=O)C(CO)c1ccccc1)C2` (stereo not given in full), the maximum recommended daily dose (mmol/kg-bw/day) (TherapeuticCategory: anticholinergic, mydriatic, antispasmodic) is 4.6e-06.
Turning to `CC(=O)OCC1=C(C(=O)O)N2C(=O)[C@@H](NC(=O)[C@H](N)c3ccccc3)[C@H]2SC1`, under setting [7], the maximum recommended daily dose (mmol/kg-bw/day) is 0.0821.
For the compound `CC(COc1ccccc1)N(CCCl)Cc1ccccc1` (stereo not given), the maximum recommended daily dose (mmol/kg-bw/day) under setting [4] was 0.00658.
As to `CC(C)NCC(O)COc1cccc2ccccc12` (stereo not given), the maximum recommended daily dose (mmol/kg-bw/day) under setting [10] is 0.0413.
